Assay results: patent US9481899B2, “Methods and compositions for producing hydrocarbons” (priority 2008, dated 2016)

Biological target: T1, Npun02004178 protein (Nostoc punctiforme, UniProt B2J1M1)
T1 construct: made in house; host or cells: E. coli BL21 (DE3)
T1 sequence (B2J1M1 1-232): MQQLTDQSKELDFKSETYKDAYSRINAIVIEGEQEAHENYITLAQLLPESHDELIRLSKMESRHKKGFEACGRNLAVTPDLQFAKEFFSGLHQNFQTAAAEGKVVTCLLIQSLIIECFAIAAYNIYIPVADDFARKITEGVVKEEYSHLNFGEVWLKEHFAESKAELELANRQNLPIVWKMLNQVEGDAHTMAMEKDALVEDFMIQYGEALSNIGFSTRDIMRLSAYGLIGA
Test: In-vitro fatty aldehyde decarbonylase assay
Assay type: biochemical, Nostoc punctiforme PCC73102
Experimental: The genomic DNA encoding N. punctiforme PCC73102 Npun02004178 (SEQ ID NO:5) was cloned into the NdeI and XhoI sites of vector pET-15b under the control of the T7 promoter. The resulting Npun02004178 protein contained an N-terminal His-tag. An E. coli BL21 strain (DE3) (Invitrogen) was transformed with the plasmid by routine chemical transformation techniques. Protein expression was carried out by first inoculating a colony of the E. coli strain in 5 mL of LB media supplemented with 100 mg/L of carbenicillin and shaken overnight at 37° C. to produce a starter culture. This starter cultures was used to inoculate 0.5 L of LB media supplemented with 100 mg/L of carbenicillin. […] Protein concentration was determined using the Bradford assay (Biorad). […]
To test Npun02004178 protein for decarbonylation activity, the following enzyme assays were set-up. […] Samples were analyzed by GC/MS using the following parameters: run time: 13.13 min; column: HP-5-MS Part No. 19091S-433E (length of 30 meters; I.D.: 0.25 mm narrowbore; film: 0.25 ìM); inject: 1 ìl Agilent 6850 inlet; inlet: 300 C splitless; carrier gas: helium; flow: 1.3 mL/min; oven temp: 75° C. hold 5 min, 320 at 40° C./min, 320 hold 2 min; det: Agilent 5975B VL MSD; det. temp: 330° C.; scan: 50-550 M/Z. Heptadecane from Sigma was used as an authentic reference for determining compound retention time and fragmentation pattern. […]

CCCCCCCCCCCCCCCCCC=O [octadecanal] was tested. Which “in-vitro conversion of octadecanal to heptadecane” value (30 μM Npun02004178, 200 μM octadecanal, spinach ferredoxin, spinach ferredoxin reductase, 1 mM NADPH, 37° C., 2 h) did it give?
The value was “conversion of octadecanal to heptadecane was observed”.

What about the “in-vitro conversion of octadecanal to heptadecane” value (NADPH, cyanobacterial ferredoxin oxidoreductase and any of the three cyanobacterial ferredoxins) of the same compound?
Its value is “conversion of octadecanal to heptadecane was observed”.
